Holding throughout (type): cell-based
Test [1] relates to Enterococcus faecalis, ATCC 33186. Briefly: Minimal inhibitory concentration assay (microbroth dilution). In a few lines: (§1)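 MIC is the lowest concentration stopping visible growth after overnight aerobic culture at 37 °C, per CLSI microbroth dilution (about 10^5 cfu/mL; two-fold series, top final 200 μM). ClpP-inactivated S. aureus USA 300 tested alongside parent strain to probe ClpP-mediated killing.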
Background: Broth dilution looks for growth in wells or tubes with falling amounts of substance.

Test [2] deals with Staphylococcus aureus, USA 300 wherein ClpP is inactivated. Briefly: Minimal inhibitory concentration assay. Summed up:
as §1

The test system of test [3] is Staphylococcus aureus, USA 300. The experiment in a line: Minimal inhibitory concentration assay. The settings on record: USA300, read-out: Minimal Inhibitory Concentrations S. aureus USA 300. Summed up:
as §1

Where [4] appears, read: Enterococcus faecalis, ATCC33186; read-out: Minimal Inhibitory Concentrations E. faecalis ATCC 33186.
Where [5] appears, read: Enterococcus faecalis, ATCC33186, read-out: Minimal Inhibitory Concentrations E. faecalis ATCC 33186.

Structures are written as SMILES. Values after ≈ are worked out from the molar mass of the structure shown. Like-named read-outs stand apart in the source and are kept apart here. *1 amine or outer side, *2 acyl side, *3 side chain or, on linkers, in order; H or OH if unused. Where a SMILES comes first, the peptide text is derived from it. Bridges are numbered along the chain shown (N, C = ends). [ ]: non-standard residue; d: D form. The star is where a group is joined. NH(1,3-benzodioxol-5-yl) = c1cc2c(cc1N*)OCO2; Phe(3,5-F2) = N[C@@H](Cc1cc(F)cc(F)c1)C(=O)O; NH(1-Me-indolin-5-yl) = CN1CCc2cc(N*)ccc21; NH(4-OCF3-phenyl) = FC(F)(F)Oc1ccc(N*)cc1; Morpholine(3S-CO) = O=C(O)[C@@H]1COCCN1; Pro(4S-Me) = C[C@@H]1CN[C@H](C(=O)O)C1; NH(4-Cl-2-F-phenyl) = Fc1cc(Cl)ccc1N*; Pro(4R-Me) = C[C@H]1CN[C@H](C(=O)O)C1; Hyp = O=C(O)[C@@H]1C[C@@H](O)CN1; NMeT = CN[C@H](C(=O)O)[C@@H](C)O; Heptenoyl(2E) = CCCC/C=C/C(=O)*; aThr = C[C@H](O)[C@H](N)C(=O)O; Pip = O=C(O)[C@@H]1CCCCN1; X4 = c1cc2c(cc1N*)CCC2; X8 = c1cc2c(cc1N*)CCO2; X6 = Cc1cc(C)cc(N*)c1; CO = O=C([*:1])[*:2]; X7 = CC/C=C/C(=O)*

In the case of `C[C@H]1C[C@H]2C(=O)O[C@@H](C)[C@H](NC(=O)[C@H](Cc3cc(F)cc(F)c3)NC(=O)Nc3ccc(OC(F)(F)F)cc3)C(=O)N3CCC[C@H]3C(=O)N3CCOC[C@H]3C(=O)N[C@@H](C)C(=O)N2C1` [Compound 201, (S)-3-(3,5-difluorophenyl)-2-(3-(4-(trifluoromethoxy)phenyl)ureido)-N-((6aS,12S,13S,15aS,17S,21S,23aS)-13,17,21-trimethyl-6,11,15,20,23-pentaoxooctadecahydro-6H,11H,15H-[1,4]oxazino[3,4-i]dipyrrolo[2,1-c:2′,1′-l][1]oxa[4,7,10,13]tetraazacyclohexadecin-12-yl)propanamide] ({NH(4-OCF3-phenyl)-CO}-[Phe(3,5-F2)][aThr]P[Morpholine(3S-CO)]A[Pro(4S-Me)]; ester 2-C), the MIC in test [1] (setting [4]) came out at 0.098 µM (≈ 0.0862 µg/mL); in test [3] it was 0.049 µM (≈ 0.0431 µg/mL). In addition, the “Minimal Inhibitory Concentrations S. aureus USA 300 ΔClpP” value in test [2] amounted to 50 µM.

For `CC/C=C/C(=O)N[C@@H](Cc1cc(F)cc(F)c1)C(=O)N[C@@H]1C(=O)N2C[C@H](O)C[C@H]2C(=O)N2CCCC[C@H]2C(=O)N[C@@H](C)C(=O)N2C[C@H](C)C[C@H]2C(=O)O[C@H]1C` [Compound 300] (X7-[Phe(3,5-F2)][aThr][Hyp][Pip]A[Pro(4R-Me)]; ester 2-C), the MIC in test [1] (setting [5]) came to 0.039 µM (≈ 0.0301 µg/mL); in test [3], 2.5 µM (≈ 1.93 µg/mL). The “Minimal Inhibitory Concentrations S. aureus USA 300 ΔClpP” value in test [2] is over 20 µM.

On to `CCCC/C=C/C(=O)N[C@@H](Cc1cc(F)cc(F)c1)C(=O)N[C@@H]1C(=O)N2C[C@H](O)C[C@H]2C(=O)N2CCCC[C@H]2C(=O)N[C@@H](C)C(=O)N2C[C@H](C)C[C@H]2C(=O)O[C@H]1C` [Compound 301, (E)-N—((S)-3-(3,5-difluorophenyl)-1-(((2R,6S,8aS,14aS,16R,20S,21S,23aS)-16-hydroxy-2,6,21-trimethyl-5,8,14,19,23-pentaoxooctadecahydro-1H,5H,14H,19H-pyrido[2,1-i]dipyrrolo[2,1-c:2′,1′-l][1]oxa[4,7,10,13]tetraazacyclohexadecin-20-yl)amino)-1-oxopropan-2-yl)hept-2-enamide] ({Heptenoyl(2E)}-[Phe(3,5-F2)][aThr][Hyp][Pip]A[Pro(4R-Me)]; ester 2-C), for which the MIC in test [1] (setting [5]) is under 0.0098 µM; in test [3], 0.079 µM (≈ 0.0633 µg/mL). Also, the “Minimal Inhibitory Concentrations S. aureus USA 300 ΔClpP” value in test [2] was over 20 µM.

Consider `C[C@@H]1C[C@H]2C(=O)O[C@@H](C)[C@H](NC(=O)[C@H](Cc3cc(F)cc(F)c3)NC(=O)Nc3ccc4c(c3)CCC4)C(=O)N3CCC[C@H]3C(=O)N3CCCC[C@H]3C(=O)N[C@@H](C)C(=O)N2C1` [Compound 302, (S)-3-(3,5-difluorophenyl)-2-(3-(2,3-dihydro-1H-INDEN-5-yl)ureido)-N-((2R,6S,8aS,14aS,20S,21S,23aS)-2,6,21-trimethyl-5,8,14,19,23-pentaoxooctadecahydro-1H,5H,14H,19H-pyrido[2,1-i]dipyrrolo[2,1-c:2′,1′-l][1]oxa[4,7,10,13]tetraazacyclohexadecin-20-yl)propanamide] ({X4-CO}-[Phe(3,5-F2)][aThr]P[Pip]A[Pro(4R-Me)]; ester 2-C), for which the MIC turned out to be 0.02 µM (≈ 0.0167 µg/mL) in test [1] (setting [5]) and 0.059 µM (≈ 0.0492 µg/mL) in test [3]. Besides, in test [2], the “Minimal Inhibitory Concentrations S. aureus USA 300 ΔClpP” value was over 20 µM.

For `Cc1cc(C)cc(NC(=O)N[C@@H](Cc2cc(F)cc(F)c2)C(=O)N[C@@H]2C(=O)N3CCC[C@H]3C(=O)N3CCCC[C@H]3C(=O)N[C@@H](C)C(=O)N3C[C@H](C)C[C@H]3C(=O)O[C@H]2C)c1` [Compound 304, (S)-3-(3,5-difluorophenyl)-2-(3-(3,5-dimethylphenyl)ureido)-N-((2R,6S,8aS,14aS,20S,21S,23aS)-2,6,21-trimethyl-5,8,14,19,23-pentaoxooctadecahydro-1H,5H,14H,19H-pyrido[2,1-i]dipyrrolo[2,1-c:2′,1′-l][1]oxa[4,7,10,13]tetraazacyclo-hexadecin-20-yl)propanamide] ({X6-CO}-[Phe(3,5-F2)][aThr]P[Pip]A[Pro(4R-Me)]; ester 2-C), the results for the MIC in test [1] (setting [4]) and in test [3] were 0.029 µM (≈ 0.0238 µg/mL) and 0.079 µM (≈ 0.0649 µg/mL), respectively. Besides, the “Minimal Inhibitory Concentrations S. aureus USA 300 ΔClpP” value in test [2] was over 20 µM.

As for `C[C@@H]1C[C@H]2C(=O)O[C@@H](C)[C@H](NC(=O)[C@H](Cc3cc(F)cc(F)c3)NC(=O)Nc3ccc4c(c3)CCO4)C(=O)N3CCC[C@H]3C(=O)N3CCCC[C@H]3C(=O)N[C@@H](C)C(=O)N2C1` [Compound 305, (S)-3-(3,5-difluorophenyl)-2-(3-(2,3-dihydrobenzofuran-5-yl)ureido)-N-((2R,6S,8aS,14aS,20S,21S,23aS)-2,6,21-trimethyl-5,8,14,19,23-pentaoxooctadecahydro-1H,5H,14H,19H-pyrido[2,1-i]dipyrrolo[2,1-c:2′,1′-l][1]oxa[4,7,10,13]tetraazacyclo-hexadecin-20-yl)propanamide] ({X8-CO}-[Phe(3,5-F2)][aThr]P[Pip]A[Pro(4R-Me)]; ester 2-C), the MIC is 0.029 µM (≈ 0.0242 µg/mL) in test [1] (setting [5]) and 0.24 µM (≈ 0.201 µg/mL) in test [3]. In addition, the “Minimal Inhibitory Concentrations S. aureus USA 300 ΔClpP” value in test [2] is over 20 µM.

For the compound `C[C@@H]1C[C@H]2C(=O)O[C@@H](C)[C@H](NC(=O)[C@H](Cc3cc(F)cc(F)c3)NC(=O)Nc3ccc(Cl)cc3F)C(=O)N3CCC[C@H]3C(=O)N3CCCC[C@H]3C(=O)N[C@@H](C)C(=O)N2C1` [Compound 307, (S)-2-(3-(4-chloro-2-fluorophenyl)ureido)-3-(3,5-difluorophenyl)-N-((2R,6S,8aS,14aS,20S,21S,23aS)-2,6,21-trimethyl-5,8,14,19,23-pentaoxooctadecahydro-1H,5H,14H,19H-pyrido[2,1-i]dipyrrolo[2,1-c:2′,1′-l][1]oxa[4,7,10,13]tetraazacyclo-hexadecin-20-yl)propanamide] ({NH(4-Cl-2-F-phenyl)-CO}-[Phe(3,5-F2)][aThr]P[Pip]A[Pro(4R-Me)]; ester 2-C), the MIC in test [1] (setting [4]) and in test [3] was under 0.02 µM in each case. Moreover, the “Minimal Inhibitory Concentrations S. aureus USA 300 ΔClpP” value in test [2] is over 20 µM.

Regarding `CCCC/C=C/C(=O)N[C@@H](Cc1cc(F)cc(F)c1)C(=O)N[C@@H]1C(=O)N2CCC[C@H]2C(=O)N(C)[C@@H]([C@@H](C)O)C(=O)N[C@@H](C)C(=O)N2C[C@H](C)C[C@H]2C(=O)O[C@H]1C` [Compound 308, (E)-N—((S)-3-(3,5-difluorophenyl)-1-(((2R,6S,9S,11aS,17S,18S,20aS)-9-((R)-1-hydroxyethyl)-2,6,10,18-tetramethyl-5,8,11,16,20-pentaoxohexadecahydro-1H,5H,16H-dipyrrolo[2,1-c:2′,1′-l][1]oxa[4,7,10,13]tetraazacyclohexadecin-17-yl)amino)-1-oxopropan-2-yl)hept-2-enamide] ({Heptenoyl(2E)}-[Phe(3,5-F2)][aThr]P[NMeT]A[Pro(4R-Me)]; ester 2-C), the MIC in test [1] (setting [4]) and in test [3] was 0.039 µM (≈ 0.0308 µg/mL) each time. Besides, the “Minimal Inhibitory Concentrations S. aureus USA 300 ΔClpP” value in test [2] is over 20 µM.

As to `CCCC/C=C/C(=O)N[C@@H](Cc1cc(F)cc(F)c1)C(=O)N[C@@H]1C(=O)N2C[C@H](O)C[C@H]2C(=O)N2CCOC[C@H]2C(=O)N[C@@H](C)C(=O)N2C[C@H](C)C[C@H]2C(=O)O[C@H]1C` [Compound 309, (E)-N—((S)-3-(3,5-difluorophenyl)-1-(((6aS,8R,12S,13S,15aS,17R,21S,23aS)-8-hydroxy-13,17,21-trimethyl-6,11,15,20,23-pentaoxooctadecahydro-6H,11H,15H-[1,4]oxazino[3,4-i]dipyrrolo[2,1-c:2′,1′-l][1]oxa[4,7,10,13]tetraazacyclohexadecin-12-yl)amino)-1-oxopropan-2-yl)hept-2-enamide] ({Heptenoyl(2E)}-[Phe(3,5-F2)][aThr][Hyp][Morpholine(3S-CO)]A[Pro(4R-Me)]; ester 2-C), the MIC in test [1] (setting [4]) amounted to 0.039 µM (≈ 0.0313 µg/mL); in test [3], 0.625 µM (≈ 0.502 µg/mL). The “Minimal Inhibitory Concentrations S. aureus USA 300 ΔClpP” value in test [2] is over 20 µM.

As to `C[C@@H]1C[C@H]2C(=O)O[C@@H](C)[C@H](NC(=O)[C@H](Cc3cc(F)cc(F)c3)NC(=O)Nc3ccc4c(c3)CCN4C)C(=O)N3CCC[C@H]3C(=O)N3CCCC[C@H]3C(=O)N[C@@H](C)C(=O)N2C1` [Compound 310, (S)-3-(3,5-difluorophenyl)-2-(3-(1-methylindolin-5-yl)ureido)-N-((2R,6S,8aS,14aS,20S,21S,23aS)-2,6,21-trimethyl-5,8,14,19,23-pentaoxooctadecahydro-1H,5H,14H,19H-pyrido[2,1-i]dipyrrolo[2,1-c:2′,1′-l][1]oxa[4,7,10,13]tetraazacyclo-hexadecin-20-yl)propanamide] ({NH(1-Me-indolin-5-yl)-CO}-[Phe(3,5-F2)][aThr]P[Pip]A[Pro(4R-Me)]; ester 2-C), the MIC in test [1] (setting [5]) is 0.313 µM (≈ 0.266 µg/mL); in test [3], 0.078 µM (≈ 0.0662 µg/mL). Moreover, the “Minimal Inhibitory Concentrations S. aureus USA 300 ΔClpP” value in test [2] is over 20 µM.

For `C[C@@H]1C[C@H]2C(=O)OC[C@H](NC(=O)[C@H](Cc3cc(F)cc(F)c3)NC(=O)Nc3ccc4c(c3)OCO4)C(=O)N3C[C@H](O)C[C@H]3C(=O)N3CCOC[C@H]3C(=O)N[C@@H](C)C(=O)N2C1` [Compound 318, (S)-2-(3-(benzo[d][1,3]dioxol-5-yl)ureido)-3-(3,5-difluorophenyl)-N-((6aS,8R,12S,15aS,17R,21S,23aS)-8-hydroxy-17,21-dimethyl-6,11,15,20,23-pentaoxooctadecahydro-6H,11H,15H-[1,4]oxazino[3,4-i]dipyrrolo[2,1-c:2′,1′-l][1]oxa[4,7,10,13]tetraazacyclo-hexadecin-12-yl)propanamide] ({NH(1,3-benzodioxol-5-yl)-CO}-[Phe(3,5-F2)]S[Hyp][Morpholine(3S-CO)]A[Pro(4R-Me)]; ester 2-C), the MIC in test [1] (setting [4]) was over 20 µM; in test [3] it was 100 µM (≈ 84.2 µg/mL).

For the origin of these results see patent US10457707B2, “Substituted urea depsipeptide analogs as activators of the CLPP endopeptidase” (priority 2015, dated 2019).
